Experiments:
BaF3 [1] = test: Antiproliferative activity against mouse BaF3 cells expressing FGFR1 incubated for 72 hrs by CCK-8 assay; type: functional, cell-based; conditions: BaF3, 72 h
BaF3 [2] = test: Antiproliferative activity against mouse BaF3 cells expressing FGFR2 incubated for 72 hrs by CCK-8 assay; type: functional, cell-based; conditions: BaF3, 72 h
BaF3 [3] = test: Antiproliferative activity against mouse BaF3 cells incubated for 72 hrs by CCK-8 assay; conditions: BaF3, 72 h
[4] = Selectivity ratio of IC50 for antiproliferative activity against mouse BaF3 cells expressing FGFR1 to IC50 for antiproliferative activity against mouse BaF3 cells expressing FGFR2; type: functional
[5] = Antiproliferative activity against FGFR2 amplified human SNU-16 cells measured after 72 hrs by CCK-8 assay; type: functional, cell-based; conditions: SNU-16, 72 h
MDA-MB-453 = test: Antiproliferative activity against human MDA-MB-453 cells harboring FGFR4-Y367C measured after 72 hrs by CCK-8 assay; type: functional, cell-based; conditions: MDA-MB-453, 72 h
[6] = Antiproliferative activity against FGFR2 amplified human KATO III stomach cancer cell line measured after 72 hrs by CCK-8 assay; type: functional, cell-based
[7] = Antiproliferative activity against human RT-112 cells harboring FGFR3-TACC3 measured after 72 hrs by CCK-8 assay; type: functional, cell-based; conditions: RT-112, 72 h
A204 = test: Antiproliferative activity against FGFR1 amplified human A204 cells measured after 72 hrs by CCK-8 assay; type: functional, cell-based; conditions: A204, 72 h

| IC50 (BaF3 [1]) [nM] | IC50 (BaF3 [2]) [nM] | IC50 (BaF3 [3]) [nM] | IC50 (MDA-MB-453) [nM] | Structure (SMILES) | Ratio IC50 [4] | IC50 [5] [nM] | IC50 [6] [nM] | IC50 [7] [nM] | IC50 (A204) [nM] |
| --- | --- | --- | --- | --- | --- | --- | --- | --- | --- |
| 841 | 90.1 | > 1000 | – | C=CC(=O)Nc1ccc(-c2c(-c3ccc(S(C)(=O)=NCCC)cc3)c3c(N)ncnc3n2C)cc1 (stereo not given) | – | – | – | – | – |
| 307 | 1.1 | > 1000 | – | C=CC(=O)Nc1ccc(-c2c(-c3ccc(S4(=O)=NCCCCC4)cc3)c3c(N)ncnc3n2C)cc1 (stereo not given) | >279 | – | – | – | – |
| > 1000 | 310 | > 1000 | – | C=CC(=O)Nc1ccc(-c2c(-c3ccc(S4(=O)=NCCOCC4)cc3)c3c(N)ncnc3n2C)cc1 (stereo not given) | – | – | – | – | – |
| > 1000 | 12 | > 1000 | – | C=CC(=O)Nc1ccc(-c2c(-c3ccc(S4(=O)=NCCC4)cc3)c3c(N)ncnc3n2C)cc1 (stereo not given) | – | – | – | – | – |
| 684 | 2.9 | > 1000 | – | C=CC(=O)Nc1ccc(-c2c(-c3ccc(S(=N)(=O)CC(C)(C)C)cc3)c3c(N)ncnc3n2C)cc1 (stereo not given) | – | – | – | – | – |
| > 1000 | 335 | > 1000 | – | C=CC(=O)Nc1ccc(-c2c(-c3ccc(S(C)(=O)=NC)cc3)c3c(N)ncnc3n2C)cc1 (stereo not given) | – | – | – | – | – |
| > 1000 | 914 | > 1000 | – | C=CC(=O)Nc1ccc(-c2c(-c3ccc(S(C)(=N)=O)cc3)c3c(N)ncnc3n2C)cc1 (stereo not given) | – | – | – | – | – |
| 441 | 8.7 | > 1000 | – | C=CC(=O)Nc1ccc(-c2c(-c3ccc(S(=N)(=O)c4ccccc4)cc3)c3c(N)ncnc3n2C)cc1 (stereo not given) | – | – | – | – | – |
| 385 | 3.6 | > 1000 | – | C=CC(=O)Nc1ccc(-c2c(-c3ccc(S4(=O)=NCCCCC45CC5)cc3)c3c(N)ncnc3n2C)cc1 (stereo not given) | – | – | – | – | – |
| 493 | 2.4 | – | – | C=C(C)C(=O)Nc1ccc(-c2c(-c3ccc(Oc4nccc(C)n4)c(F)c3)c3c(N)ncnc3n2C)cc1 [LIRAFUGRATINIB] | – | – | – | – | – |
| > 1000 | 12.1 | > 1000 | – | C=CC(=O)Nc1ccc(-c2c(-c3ccc(S4(=O)=NCCCC4)cc3)c3c(N)ncnc3n2C)cc1 (stereo not given) | – | – | – | – | – |
| > 1000 | 108 | > 1000 | – | C=CC(=O)Nc1ccc(-c2c(-c3ccc(S(C)(=O)=NC4CC4)cc3)c3c(N)ncnc3n2C)cc1 (stereo not given) | – | – | – | – | – |
| > 1000 | 35.5 | > 1000 | – | C=CC(=O)Nc1ccc(-c2c(-c3ccc(S(=O)(CCC)=NC)cc3)c3c(N)ncnc3n2C)cc1 (stereo not given) | – | – | – | – | – |
| > 1000 | > 1000 | > 1000 | 4180 | CCC(=O)Nc1ccc(-c2c(-c3ccc(S4(=O)=NCCCCC4)cc3)c3c(N)ncnc3n2C)c(F)c1 (stereo not given) | – | 1280 | 2210 | > 10000 | > 10000 |
| > 1000 | 70.1 | > 1000 | – | C=CC(=O)Nc1ccc(-c2c(-c3ccc(S(=N)(=O)CCC)cc3)c3c(N)ncnc3n2C)cc1 (stereo not given) | – | – | – | – | – |

— ChEMBL document CHEMBL6114968, “Discovery of BW710 as a potent, selective and orally bioavailable fibroblast growth factor receptor 2 (FGFR2) inhibitor” (Eur J Med Chem, 2025)
